The structures appear in SMILES notation.

The test concerns the target MMP-13 (Homo sapiens, UniProt P45452). Put plainly: EnzoLyte 520 Generic MMP Assay Kit, 5-FAM/QXL520 FRET peptide substrate. In kind it is biochemical. The text has this:
The EnzoLyte™ 520 Generic MMP Assay Kit (AnaSpec Inc.) can detect the activity of several MMPs including MMP-1, 2, 3, 7, 8, 9, 13, and 14. This kit uses a 5-FAM/QXL™520 fluorescence resonance energy transfer (FRET) peptide as an MMP substrate.

Take `CNC(=O)[C@@H](NC(=O)c1ccc(-c2ccc(NC(=O)c3cnn(C)c3)cc2)o1)C1CCCCC1` [N-[4-(5-{[(1S)-1-cyclohexyl-2-(methylamino)-2-oxoethyl]carbamoyl}furan-2-yl)phenyl]-1-methyl-1H-pyrazole-4-carboxamide]: it took 180 nM to reach half-maximal inhibition (IC50). That is a sub-micromolar value.

For the compound `CNC(=O)[C@@H](NC(=O)c1ccc(-c2cccc(CNC(=O)c3ncccc3C)c2)o1)C1CCCCC1` [N-[3-(5-{[(1S)-1-cyclohexyl-2-(methylamino)-2-oxoethyl]carbamoyl}furan-2-yl)benzyl]-3-methylpyridine-2-carboxamide], 103 nM corresponded to half-maximal inhibition (IC50). Compared with the last compound, the IC50 is about 1.7-fold lower.

These data come from patent US8637550B2, “Heteroaryl diamide compounds useful as MMP-13 inhibitors” (Boehringer Ingelheim International GmbH, priority 2008, dated 2014).
